# Key:
# [1] = system: BMSCs; type: cell-based, human
# Procedure: MNCs in BM specimens were also used to establish long-term bone marrow stromal cell (BMSC) cultures, as described in, for example, Uchiyama et al Blood. 1993; 82:3712-3720 and Hideshmia et al Oncogene. 2001; 20:4519-4527.
# Reagents: Honokiol (HNK; Calbiochem, San Diego, Calif.) was dissolved in ethanol at 20 mg/ml stock solution. Recombinant human interleukin-6 (IL-6), vascular endothelial growth factor (VEGF) and insulin-like growth factor-1 (IGF-1) (R&D Systems, Minneapolis, Minn.) were reconstituted with sterile PBS containing 0.1% FBS (IL-6 and VEGF) and 10 mM of acetic acid containing 0.1% FBS (IGF-1), respectively. Pan-caspase inhibitor z-VAD-fmk (Bachem, Bubendorf, Switzerland) was dissolved in methanol. These reagents were stored at −20° C. and diluted by media just before the use. Doxorubicin (Sigma, St Louis, Mo.) was dissolved in sterile water at the concentration of 3.45 mM. As2O3 (5 mM in PBS) was provided by Cell Therapeutics Inc. (Seattle, Wash.). […] Absorbance readings at a wavelength of 450 nm were taken on a spectrophotometer (Molecular Devices Corp., Sunnyvale, Calif.).
# The effect of HNK on MM cells in the presence of exogenous IL-6 and IGF-1, as well as BMSCs was evaluated. […] DNA synthesis was determined by measuring [^3H]-thymidine incorporation during the last 8 h of 48 h cultures. […]
# [2] = system: MM.1S cells; assay: [3H]-thymidine uptake with IL-6, IGF-1 or BMSCs; type: cell-based, human; settings: 48 h
# Procedure: DNA synthesis was measured as previously described, see, for example, Hideshima et al Blood. 2000; 96:2943-2950. Cells in 96-well culture plates were pulsed with 0.5 μCi/well of [^3H]-thymidine (Perkin Elmer, Boston, Mass.) during the last 8 h of culture, harvested onto glass filters with an automatic cell harvester (Cambridge Technology, Cambridge, Mass.), and counted using the LKB Betaplate scintillation counter (Wallac, Gaithersburg, Md.). All experiments were performed in triplicate.
# Assessment of HNK-induced cytotoxicity against patient MM cells: Cytotoxicity of HNK against fresh MM cells was determined as previously determined, see, for example, Mitsiades et al Cancer Cell. 2004; 5:221-230. […] A CD38^high fraction enriched for MM cells was determined in side and forward scatter panel in each case. The expression of CD138 on gated cells was also evaluated. After HNK-treatment for 48 h, cells were harvested and percentage of CD38^high cells with or without HNK-treatment was evaluated. […] Cells were stained with propidium iodide (PI; 50 μg/mL; Sigma, St Louis, Mo.), and cell cycle profile was determined by using the program M software on an EPICS XL flow cytometer (Beckman Coulter, Hialeah, Fla.). […] Fluorescence intensity of TUNEL and APO 2.7 staining was determined using on EPICS XL flow cytometer. Cytotoxicity was determined by trypan blue exclusion assay. […]
compound,measurement,setting,value
"C=CCc1ccc(O)c(-c2ccc(O)c(CC=C)c2)c1 [HNK, Honokiol]",viability of BMSCs,[1],did not affect the viability of BMSCs
same,DNA synthesis triggered by binding to BMSCs,[2]; MM.1S on BMSCs of MM patients,abrogated
same,growth inhibition in the presence of IL-6 or IGF-1,[2]; MM.1S,Neither IL-6 nor IGF-1 protected against HNK induced growth inhibition

# — patent US20080300298A1, “Honokiol Derivates For the Treatment of Proliferative Disorders” (priority 2005, published 2008)
